Reference: patent US5072038A, “2,3,4,5-tetrahalogenobenzene derivatives” (Bayer Aktiengesellschaft, priority 1984, dated 1991)
Values after ≈ are worked out from the molar mass of the structure shown. Where a name gives a salt, the structure may show the parent alone. Read-outs that look alike come from different tables or passages of the source.

Experiments:
Test in all cases: MIC, agar dilution test
Type in all cases: cell-based
Klebsiella 63 = settings: agar dilution test/isosensitest medium
From the text: (§1) | Agar dilution test/isosensitest medium

E. coli T 7 = settings: Escherichia coli, T7
From the text: as §1

Providencia 12052 = settings: agar dilution test/isosensitest medium
From the text: as §1

E. coli 445/7 = settings: Escherichia coli, agar dilution test/isosensitest medium
From the text: as §1

Pseudom. Ellsworth = settings: agar dilution test/isosensitest medium
From the text: as §1

E. coli Neumann = settings: Escherichia coli, agar dilution test/isosensitest medium
From the text: as §1

Staph. FK 422 = settings: agar dilution test/isosensitest medium
From the text: as §1

Klebsiella 6179 = settings: agar dilution test/isosensitest medium
From the text: as §1

Providencia 12012 = settings: agar dilution test/isosensitest medium
From the text: as §1

Staph. 1756 = settings: agar dilution test/isosensitest medium
From the text: as §1

Staph. 133 = settings: agar dilution test/isosensitest medium
From the text: as §1

Proteus 1017 = settings: agar dilution test/isosensitest medium
From the text: as §1

[1] = E. coli T 7, agar dilution test/isosensitest medium, read-out: MIC
[2] = 445/7, E. coli 455/7 (second MIC table)
[3] = E. coli 445/7 (first MIC table)

Row | Compound | MIC (Klebsiella 63) [mg/L] | MIC (E. coli T 7; [1]) [mg/L] | MIC (Providencia 12052) [mg/L] | MIC (E. coli 445/7; [2]) [mg/L] | MIC (Pseudom. Ellsworth) [mg/L] | MIC (E. coli Neumann) [mg/L] | MIC (Staph. FK 422) [mg/L] | MIC (Klebsiella 6179) [mg/L] | MIC (Providencia 12012) [mg/L] | MIC (Staph. 1756) [mg/L] | MIC (Staph. 133) [mg/L] | MIC (Proteus 1017) [mg/L] | MIC (E. coli 445/7; [3]) [mg/L] | MIC (E. coli T 7) [mg/L]
1 | CC1CN(c2c(F)cc3c(=O)c(C(=O)O)cn(C4CC4)c3c2Cl)CCN1 (stereo not drawn) [Example 20, 8-chloro-1-cyclopropyl-6-fluoro-1,4-dihydro-7-(3-methyl-1-piperazinyl)-4-oxo-3-quinolinecarboxylic acid] | ≤ 0.015 | ≤ 0.015 | 4 (≈ 10.5 µM) | 1 (≈ 2.63 µM) | 0.25 (≈ 0.658 µM) | ≤ 0.015 | 0.06 (≈ 0.158 µM) | 0.03 (≈ 0.079 µM) | 0.03 (≈ 0.079 µM) | 0.06 (≈ 0.158 µM) | 0.06 (≈ 0.158 µM) | ≤ 0.015 |  | 
2 | O=C(O)c1cn(C2CC2)c2c(F)c(N3CCNCC3)c(Cl)cc2c1=O [Example 1, 6-chloro-1-cyclopropyl-8-fluoro-1,4-dihydro-4-oxo-7-(1-piperazinyl)-3-quinolinecarboxylic acid] | ≤ 0.015 | ≤ 0.015 | 8 (≈ 21.9 µM) |  | 0.06 (≈ 0.164 µM) | ≤ 0.015 | 0.25 (≈ 0.683 µM) | 0.03 (≈ 0.082 µM) | ≤ 0.015 | 0.25 (≈ 0.683 µM) | 0.25 (≈ 0.683 µM) | ≤ 0.015 | 4 (≈ 10.9 µM) | 
3 | CCC1CN(c2c(Cl)cc3c(=O)c(C(=O)O)cn(C4CC4)c3c2F)CCN1 (stereo not drawn) [Example 3] | 0.03 (≈ 0.0762 µM) | ≤ 0.015 | 16 (≈ 40.6 µM) |  |  | ≤ 0.015 | 0.25 (≈ 0.635 µM) | ≤ 0.015 |  | 0.25 (≈ 0.635 µM) | 0.25 (≈ 0.635 µM) |  | 8 (≈ 20.3 µM) | 
4 | CN1CCN(c2c(Cl)cc3c(=O)c(C(=O)O)cn(C4CC4)c3c2F)CC1 [Example 6] | 0.015 (≈ 0.0395 µM) | ≤ 0.015 | 4 (≈ 10.5 µM) |  |  | ≤ 0.015 | 0.025 (≈ 0.0658 µM) | 0.015 (≈ 0.0395 µM) | 0.03 (≈ 0.079 µM) | 0.5 (≈ 1.32 µM) | 0.25 (≈ 0.658 µM) | 0.06 (≈ 0.158 µM) | 4 (≈ 10.5 µM) | 
5 | CC(=O)CN1CCN(c2c(Cl)cc3c(=O)c(C(=O)O)cn(C4CC4)c3c2F)CC1.Cl [Example 13, 6-chloro-1-cyclopropyl-8-fluoro-1,4-dihydro-4-oxo-7-[4-(2-oxopropyl)-1-piperazinyl]-3-quinolinecarboxylic acid hydrochloride] | ≤ 0.015 | ≤ 0.015 | 16 | 8 | 0.125 | ≤ 0.015 | 0.25 | 0.06 | ≤ 0.015 | 0.25 | 0.25 | ≤ 0.015 |  | 
6 | CCN1CCN(c2c(Cl)cc3c(=O)c(C(=O)O)cn(C4CC4)c3c2F)CC1 [Example 10, 6-chloro-1-cyclopropyl-7-(4-ethyl-1-piperazinyl)-8-fluoro-1,4-dihydro-4-oxo-3-quinolinecarboxylic acid] | 0.125 (≈ 0.317 µM) |  |  |  |  | ≤ 0.015 |  | 0.06 (≈ 0.152 µM) |  |  |  |  | 16 (≈ 40.6 µM) | 0.025 (≈ 0.0635 µM)
7 | O=C(O)c1cn(C2CC2)c2c(Cl)c(N3CCNCC3)c(F)cc2c1=O [Example 21, hydrochloride] | 0.06 | ≤ 0.015 | 1 | 1 |  | ≤ 0.015 | 0.125 | 0.03 | 0.06 | 0.125 | 0.06 | 0.03 |  | 
8 | O=C(O)c1cn(C2CC2)c2c(F)c(N3CCN(CCO)CC3)c(Cl)cc2c1=O [Example 7] | 0.06 (≈ 0.146 µM) | ≤ 0.015 | 16 (≈ 39 µM) |  |  | ≤ 0.015 | 0.5 (≈ 1.22 µM) | 0.06 (≈ 0.146 µM) |  | 0.5 (≈ 1.22 µM) | 0.25 (≈ 0.61 µM) | 0.125 (≈ 0.305 µM) | 16 (≈ 39 µM) | 
9 | O=C(CN1CCN(c2c(Cl)cc3c(=O)c(C(=O)O)cn(C4CC4)c3c2F)CC1)c1ccccc1 [Example 14, 6-chloro-1-cyclopropyl-8-fluoro-1,4-dihydro-4-oxo-7-[4-(2-oxo-2-phenylethyl)-1-piperazinyl]-3-quinolinecarboxylic acid] | 0.06 (≈ 0.124 µM) | ≤ 0.015 | 16 (≈ 33.1 µM) | 2 (≈ 4.13 µM) |  | ≤ 0.015 |  | 0.25 (≈ 0.517 µM) | 0.06 (≈ 0.124 µM) |  |  | 0.125 (≈ 0.258 µM) |  | 
10 | CCn1cc(C(=O)O)c(=O)c2cc(F)c(N3CCNCC3)cc21 [Norfloxacin, 1-ethyl-6-fluoro-1,4-dihydro-4-oxo-7-(1-piperazinyl)-3-quinolinecarboxylicacid, reference compound] | 0.125 (≈ 0.391 µM) | 0.03 (≈ 0.0939 µM) | 64 (≈ 200 µM) | 16 (≈ 50.1 µM) | 0.125 (≈ 0.391 µM) | 0.06 (≈ 0.188 µM) | 0.5 (≈ 1.57 µM) | 0.25 (≈ 0.783 µM) | 0.03 (≈ 0.0939 µM) | 1 (≈ 3.13 µM) | 0.5 (≈ 1.57 µM) | 0.03 (≈ 0.0939 µM) |  | 
11 | CC1CN(c2c(Cl)cc3c(=O)c(C(=O)O)cn(C4CC4)c3c2F)CC(C)N1 (stereo not drawn) [Example 5] | 0.03 (≈ 0.0762 µM) | ≤ 0.015 | 32 (≈ 81.3 µM) |  |  | ≤ 0.015 | 0.25 (≈ 0.635 µM) | 0.03 (≈ 0.0762 µM) |  | 0.5 (≈ 1.27 µM) | 0.5 (≈ 1.27 µM) |  | 8 (≈ 20.3 µM) | 
12 | CC1CN(c2c(Cl)cc3c(=O)c(C(=O)O)cn(C4CC4)c3c2F)CCN1 (stereo not drawn) [Example 2] | 0.03 (≈ 0.079 µM) | ≤ 0.015 | 16 (≈ 42.1 µM) |  |  | ≤ 0.015 | 0.25 (≈ 0.658 µM) | 0.03 (≈ 0.079 µM) | 0.03 (≈ 0.079 µM) | 0.5 (≈ 1.32 µM) | 0.25 (≈ 0.658 µM) |  | 8 (≈ 21.1 µM) | 
13 | CC(=O)CCN1CCN(c2c(Cl)cc3c(=O)c(C(=O)O)cn(C4CC4)c3c2F)CC1 [Example 12, 6-chloro-1-cyclopropyl-8-fluoro-1,4-dihydro-4-oxo-7-[4-(3-oxobutyl)-1-piperazinyl]-3-quinolinecarboxylic acid] | ≤ 0.015 | ≤ 0.015 | 16 (≈ 36.7 µM) | 8 (≈ 18.4 µM) | 0.125 (≈ 0.287 µM) | ≤ 0.015 | 0.25 (≈ 0.574 µM) | 0.06 (≈ 0.138 µM) | ≤ 0.015 | 0.25 (≈ 0.574 µM) | 0.25 (≈ 0.574 µM) | 0.03 (≈ 0.0688 µM) |  | 
14 | O=C(O)c1cn(C2CC2)c2c(F)c(N3CCNC(C4CCCCC4)C3)c(Cl)cc2c1=O (stereo not drawn) [Example 8] |  | ≤ 0.015 |  |  |  |  | 0.06 (≈ 0.134 µM) |  |  | 0.06 (≈ 0.134 µM) | 0.06 (≈ 0.134 µM) |  |  | 
15 | CC1CN(c2c(Cl)cc3c(=O)c(C(=O)O)cn(C4CC4)c3c2F)CC(C)O1 (stereo not drawn) [Example 17, 6-chloro-1-cyclopropyl-8-fluoro-1,4-dihydro-7-(2,6-dimethyl-4-morpholinyl)-4-oxo-3-quinolinecarboxylic acid] |  |  |  |  |  |  | ≤ 0.015 |  |  | ≤ 0.015 |  |  |  | 
16 | CN1CCN(c2c(F)cc3c(=O)c(C(=O)O)cn(C4CC4)c3c2Cl)CC1 [Example 19, 8-chloro-1-cyclopropyl-6-fluoro-1,4-dihydro-7-(4-methyl-1-piperazinyl)-4-oxo-3-quinolinecarboxylic acid] | 0.03 (≈ 0.079 µM) | ≤ 0.015 | 4 (≈ 10.5 µM) | 1 (≈ 2.63 µM) | 0.125 (≈ 0.329 µM) | ≤ 0.015 | 0.06 (≈ 0.158 µM) | 0.03 (≈ 0.079 µM) | 0.03 (≈ 0.079 µM) | 0.06 (≈ 0.158 µM) | 0.06 (≈ 0.158 µM) | 0.03 (≈ 0.079 µM) |  | 
17 | CC1CN(c2c(Cl)cc3c(=O)c(C(=O)O)cn(C4CC4)c3c2Cl)CCN1 (stereo not drawn) [Example 22, 6,8-dichloro-1-cyclopropyl-1,4-dihydro-7-(3-methyl-1-piperazinyl)-4-oxo-3-quinolinecarboxylic acid] | 0.03 (≈ 0.0757 µM) | ≤ 0.015 | 2 (≈ 5.05 µM) | 2 (≈ 5.05 µM) |  | ≤ 0.015 | 0.125 (≈ 0.315 µM) | 0.06 (≈ 0.151 µM) | 0.06 (≈ 0.151 µM) | 0.125 (≈ 0.315 µM) | 0.125 (≈ 0.315 µM) | 0.06 (≈ 0.151 µM) |  | 
